#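 All cell lines were grown in 96-well plates and treated with compound for 48 hours. TGI: total growth inhibition.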
# How the values were obtained:
# Assay in all cases: DTP human tumour cell line panel, 48 h
# 786-0 renal = test system: 786-0 renal
# A498 renal = test system: A498 renal
# A549 NSCLC = test system: A549 NSCLC
# ACHN renal = test system: ACHN renal
# BT-549 breast = test system: BT-549 breast
# CAKI-1 renal = test system: CAKI-1 renal
# CCRF-CEM leukemia = test system: CCRF-CEM leukemia
# COLO 205 colon = test system: COLO 205 colon
# DU-145 prostate = test system: DU-145 prostate
# EKVX NSCLC = test system: EKVX NSCLC
# HCC-2998 colon = test system: HCC-2998 colon
# HCT-116 colon = test system: HCT-116 colon
# HCT-15 colon = test system: HCT-15 colon
# HL-60(TB) leukemia = test system: HL-60(TB) leukemia
# HOP-62 NSCLC = test system: HOP-62 NSCLC
# HOP-92 NSCLC = test system: HOP-92 NSCLC
# HS 578T breast = test system: HS 578T breast
# HT29 colon = test system: HT29 colon
# IGROV1 ovarian = test system: IGROV1 ovarian
# K-562 leukemia = test system: K-562 leukemia
# KM12 colon = test system: KM12 colon
# LOX IMVI melanoma = test system: LOX IMVI melanoma
# M14 melanoma = test system: M14 melanoma
# MALME-3M melanoma = test system: MALME-3M melanoma
# MCF7 breast = test system: MCF7 breast
# MDA-MB-231 breast = test system: MDA-MB-231 breast
# MDA-MB-435 = test system: MDA-MB-435
# MDA-N = test system: MDA-N
# MOLT-4 leukemia = test system: MOLT-4 leukemia
# NCI-H226 lung = test system: NCI-H226 lung
# NCI-H23 lung = test system: NCI-H23 lung
# NCI-H460 lung = test system: NCI-H460 lung
# NCI-H522 lung = test system: NCI-H522 lung
# NCI/ADR-RES ovarian = test system: NCI/ADR-RES ovarian
# OVCAR-3 ovarian = test system: OVCAR-3 ovarian
# OVCAR-4 ovarian = test system: OVCAR-4 ovarian
# OVCAR-5 ovarian = test system: OVCAR-5 ovarian
# OVCAR-8 ovarian = test system: OVCAR-8 ovarian
# PC-3 prostate = test system: PC-3 prostate
# RPMI-8226 leukemia = test system: RPMI-8226 leukemia
# RXF 393 renal = test system: RXF 393 renal
# SF-268 CNS = test system: SF-268 CNS
# SF-295 CNS = test system: SF-295 CNS
# SF-539 CNS = test system: SF-539 CNS
# SK-MEL-2 melanoma = test system: SK-MEL-2 melanoma
# SK-MEL-28 melanoma = test system: SK-MEL-28 melanoma
# SK-MEL-5 melanoma = test system: SK-MEL-5 melanoma
# SK-OV-3 ovarian = test system: SK-OV-3 ovarian
# SN12C renal = test system: SN12C renal
# SNB-19 CNS = test system: SNB-19 CNS
# SNB-75 CNS = test system: SNB-75 CNS
# SR leukemia = test system: SR leukemia
# SW-620 colon = test system: SW-620 colon
# T-47D breast = test system: T-47D breast
# TK-10 renal = test system: TK-10 renal
# U251 CNS = test system: U251 CNS
# UACC-257 melanoma = test system: UACC-257 melanoma
# UACC-62 melanoma = test system: UACC-62 melanoma
# UO-31 renal = test system: UO-31 renal
smiles,measurement,setting,value
CC(C)/C(Cl)=N/OC(=O)Nc1ccc(OC(F)(F)F)cc1,TGI,786-0 renal,19.6 µM
same,TGI,A498 renal,32.9 µM
same,TGI,A549 NSCLC,34.8 µM
same,TGI,ACHN renal,25.1 µM
same,TGI,BT-549 breast,29.8 µM
same,TGI,CAKI-1 renal,9.55 µM
same,TGI,CCRF-CEM leukemia,5.08 µM
same,TGI,COLO 205 colon,3.26 µM
same,TGI,DU-145 prostate,31.5 µM
same,TGI,EKVX NSCLC,22.9 µM
same,TGI,HCC-2998 colon,30.5 µM
same,TGI,HCT-116 colon,18 µM
same,TGI,HCT-15 colon,18.8 µM
same,TGI,HL-60(TB) leukemia,5.76 µM
same,TGI,HOP-62 NSCLC,31.7 µM
same,TGI,HOP-92 NSCLC,3.71 µM
same,TGI,HS 578T breast,43 µM
same,TGI,HT29 colon,35.9 µM
same,TGI,IGROV1 ovarian,30.5 µM
same,TGI,K-562 leukemia,4.15 µM
same,TGI,KM12 colon,30.3 µM
same,TGI,LOX IMVI melanoma,5.89 µM
same,TGI,M14 melanoma,12 µM
same,TGI,MALME-3M melanoma,6.5 µM
same,TGI,MCF7 breast,28 µM
same,TGI,MDA-MB-231 breast,32.5 µM
same,TGI,MDA-MB-435,25.3 µM
same,TGI,MDA-N,26.2 µM
same,TGI,MOLT-4 leukemia,> 77.9 µM
same,TGI,NCI-H226 lung,23.5 µM
same,TGI,NCI-H23 lung,30.9 µM
same,TGI,NCI-H460 lung,31.2 µM
same,TGI,NCI-H522 lung,2.81 µM
same,TGI,NCI/ADR-RES ovarian,33.6 µM
same,TGI,OVCAR-3 ovarian,32.6 µM
same,TGI,OVCAR-4 ovarian,16.7 µM
same,TGI,OVCAR-5 ovarian,29.2 µM
same,TGI,OVCAR-8 ovarian,33.5 µM
same,TGI,PC-3 prostate,30.4 µM
same,TGI,RPMI-8226 leukemia,8.97 µM
same,TGI,RXF 393 renal,18.3 µM
same,TGI,SF-268 CNS,39.1 µM
same,TGI,SF-295 CNS,33.1 µM
same,TGI,SF-539 CNS,31.3 µM
same,TGI,SK-MEL-2 melanoma,28.1 µM
same,TGI,SK-MEL-28 melanoma,26.6 µM
same,TGI,SK-MEL-5 melanoma,21.3 µM
same,TGI,SK-OV-3 ovarian,31.9 µM
same,TGI,SN12C renal,31.7 µM
same,TGI,SNB-19 CNS,31.6 µM
same,TGI,SNB-75 CNS,29 µM
same,TGI,SR leukemia,8.44 µM
same,TGI,SW-620 colon,3.27 µM
same,TGI,T-47D breast,25.8 µM
same,TGI,TK-10 renal,29.3 µM
same,TGI,U251 CNS,31.2 µM
same,TGI,UACC-257 melanoma,26.6 µM
same,TGI,UACC-62 melanoma,30.2 µM
same,TGI,UO-31 renal,23.8 µM
CCOC(=O)C(NC(=O)Nc1ccc(Cl)cc1)(OC)C(F)(F)F (centres undefined),TGI,786-0 renal,> 100 µM
same,TGI,A498 renal,> 100 µM
same,TGI,A549 NSCLC,> 100 µM
same,TGI,ACHN renal,> 100 µM
same,TGI,BT-549 breast,> 100 µM
same,TGI,CAKI-1 renal,> 100 µM
same,TGI,COLO 205 colon,> 100 µM
same,TGI,EKVX NSCLC,> 100 µM
same,TGI,HCC-2998 colon,32.7 µM
same,TGI,HCT-116 colon,> 100 µM
same,TGI,HCT-15 colon,> 100 µM
same,TGI,HL-60(TB) leukemia,> 100 µM
same,TGI,HS 578T breast,> 100 µM
same,TGI,HT29 colon,> 100 µM
same,TGI,IGROV1 ovarian,> 100 µM
same,TGI,LOX IMVI melanoma,> 100 µM
same,TGI,M14 melanoma,> 100 µM
same,TGI,MDA-MB-435,> 100 µM
same,TGI,MDA-N,> 100 µM
same,TGI,NCI-H23 lung,> 100 µM
same,TGI,NCI/ADR-RES ovarian,> 100 µM
same,TGI,OVCAR-5 ovarian,> 100 µM
same,TGI,OVCAR-8 ovarian,> 100 µM
same,TGI,PC-3 prostate,> 100 µM
same,TGI,RXF 393 renal,> 100 µM
same,TGI,SF-268 CNS,> 100 µM
same,TGI,SF-539 CNS,> 100 µM
same,TGI,SK-MEL-2 melanoma,64.8 µM
same,TGI,SK-MEL-28 melanoma,> 100 µM
same,TGI,SK-MEL-5 melanoma,> 100 µM
same,TGI,SK-OV-3 ovarian,> 100 µM
same,TGI,SN12C renal,> 100 µM
same,TGI,SNB-19 CNS,> 100 µM
same,TGI,SNB-75 CNS,> 100 µM
same,TGI,SR leukemia,> 100 µM
same,TGI,SW-620 colon,> 100 µM
same,TGI,T-47D breast,> 100 µM
same,TGI,TK-10 renal,> 100 µM
same,TGI,U251 CNS,> 100 µM
same,TGI,UACC-257 melanoma,> 100 µM

# Source: PubChem BioAssay (NCI)
